Where two headings read alike, the source gives them in different places.
What was measured:
KHW3+pYI = assay: Agar well diffusion growth inhibition assay, cytotoxicity check on KHW3+pYI; assay type: cell-based, Saccharomyces cerevisiae; details: FK 506 solution 12.5 μg/ml, 50 μl per well; 32° C., 48 hours; no drug in medium
Experimental: (§1) Yeast cells grown on an SD-uracil medium were suspended in a soft agar dissolved in 4 ml at 50° C. so as to make 1×10^5 cells/ml, mixed after addition of a drug such as cycloheximide or cerulenin if necessary and layered on an SD-uracil medium containing the drug of the same concentration. After the soft agar was solidified, a pore of 8 mm diameter was formed on a part of the soft agar and 50 μl of the test substance were poured thereinto. The plate was incubated at 32° C. for 48 hours and […] of growth inhibition ring around the well was measured whereupon activity of the test substance for inhibiting the discharge of cycloheximide and cerulenin by the PDR transporter was evaluated.
(§2) Unit for the growth inhibition activity was defined as follows. Thus, when a triple gene disruption strain KHW3 (Δsyr1/erg3::HIS3 Δpdr5::LEU2 Δsnq2::HIS3) was used and diameter of the inhibition ring measured by the above agar well diffusion method was plotted to logarithm of cycloheximide concentration where cycloheximide of 8-200 μg/ml was used as a standard substance, it was noted there was a linear relation as shown in FIG. 1. Growth inhibition activity showing an inhibition ring of 20 mm to KHW3 containing pYI was defined as 20 inhibition units per ml (IU/ml) and, using the above-mentioned standard curve of cycloheximide, inhibition units of test substances were calculated. […]

KHW4 + pYI = assay: MIC on SD-uracil agar medium, KHW4 + pYI; assay type: cell-based; details: Saccharomyces cerevisiae, 48 h
Experimental: (§3) A double gene disruption strain KHW2 deficient in PDR5 (Δsyr1/erg3::HIS Δpdr5::LEU2), a double gene disruption strain KHW4 deficient in SNQ2 which is another drug-discharging ABC transporter of yeast (Δpdr5::LEU2 Δsnq2::HIS3) and a triple gene disruption strain […] deficient in PDR5 and SNQ2 (Δsyr1/erg3::HIS3 Δpdr5::LEU2 Δsnq2::HIS3) were prepared from an SYR1/ERG3 gene disruption strain KHW1 of Saccharomyces cerevisiae W303-1A (wild type) (Δsyr1/erg3::HIS3). Preparation of multiple gene disruption strains was carried out in such a manner that a host strain was transformed by a plasmid for disruption of gene where LEU2 gene or […] gene was a marker and the disrupted strain where each drug-resistant gene was disrupted by insertion of LEU2 or HIS3 gene was selected using recovery of requirement of leucine or histidine as an index. Each of the multiple gene disruption strains was confirmed by an increase in sensitivity to cycloheximide and cerulenin while gene disruption of PDR5 and SNQ2 was confirmed by a southern hybridization.

KHW1 + pYI = assay: MIC on SD-uracil agar medium, SYR1 gene disruption strain KHW1 + pYI; assay type: cell-based, Saccharomyces cerevisiae; details: for MIC: Saccharomyces cerevisiae, 48 h; for Increase of sensitivity of SYR1 gene disruption strain (KHW1+pYI) compared with wild strain (W303-1A+pYI): ratio of MIC values
Experimental: as §3

KHW4 + pYI-PDR5 = assay: MIC on SD-uracil agar medium, KHW4 + pYI-PDR5; assay type: cell-based; details: Saccharomyces cerevisiae, 48 h
Experimental: as §3

KHW3 + pYI-PDR5 = assay: MIC on SD-uracil agar medium, KHW3 + pYI-PDR5; assay type: cell-based; details: Saccharomyces cerevisiae, 48 h
Experimental: as §3

PDR5 transporter = molecular target: T1, PDR5 transporter (Saccharomyces cerevisiae, UniProt P33302); assay: Agar well diffusion growth inhibition assay for PDR5 transporter inhibition, KHW3+pYI-PDR5; assay type: cell-based; details: cycloheximide 0.04 μg/ml or cerulenin 0.4 μg/ml, without FK 506
T1 construct: expressed in transfected cells; host or cells: Saccharomyces cerevisiae KHW3 (Δsyr1/erg3::HIS3 Δpdr5::LEU2 Δsnq2::HIS3) carrying plasmid pYI-PDR5
T1 sequence (P33302 whole entry, the tested form may be a part): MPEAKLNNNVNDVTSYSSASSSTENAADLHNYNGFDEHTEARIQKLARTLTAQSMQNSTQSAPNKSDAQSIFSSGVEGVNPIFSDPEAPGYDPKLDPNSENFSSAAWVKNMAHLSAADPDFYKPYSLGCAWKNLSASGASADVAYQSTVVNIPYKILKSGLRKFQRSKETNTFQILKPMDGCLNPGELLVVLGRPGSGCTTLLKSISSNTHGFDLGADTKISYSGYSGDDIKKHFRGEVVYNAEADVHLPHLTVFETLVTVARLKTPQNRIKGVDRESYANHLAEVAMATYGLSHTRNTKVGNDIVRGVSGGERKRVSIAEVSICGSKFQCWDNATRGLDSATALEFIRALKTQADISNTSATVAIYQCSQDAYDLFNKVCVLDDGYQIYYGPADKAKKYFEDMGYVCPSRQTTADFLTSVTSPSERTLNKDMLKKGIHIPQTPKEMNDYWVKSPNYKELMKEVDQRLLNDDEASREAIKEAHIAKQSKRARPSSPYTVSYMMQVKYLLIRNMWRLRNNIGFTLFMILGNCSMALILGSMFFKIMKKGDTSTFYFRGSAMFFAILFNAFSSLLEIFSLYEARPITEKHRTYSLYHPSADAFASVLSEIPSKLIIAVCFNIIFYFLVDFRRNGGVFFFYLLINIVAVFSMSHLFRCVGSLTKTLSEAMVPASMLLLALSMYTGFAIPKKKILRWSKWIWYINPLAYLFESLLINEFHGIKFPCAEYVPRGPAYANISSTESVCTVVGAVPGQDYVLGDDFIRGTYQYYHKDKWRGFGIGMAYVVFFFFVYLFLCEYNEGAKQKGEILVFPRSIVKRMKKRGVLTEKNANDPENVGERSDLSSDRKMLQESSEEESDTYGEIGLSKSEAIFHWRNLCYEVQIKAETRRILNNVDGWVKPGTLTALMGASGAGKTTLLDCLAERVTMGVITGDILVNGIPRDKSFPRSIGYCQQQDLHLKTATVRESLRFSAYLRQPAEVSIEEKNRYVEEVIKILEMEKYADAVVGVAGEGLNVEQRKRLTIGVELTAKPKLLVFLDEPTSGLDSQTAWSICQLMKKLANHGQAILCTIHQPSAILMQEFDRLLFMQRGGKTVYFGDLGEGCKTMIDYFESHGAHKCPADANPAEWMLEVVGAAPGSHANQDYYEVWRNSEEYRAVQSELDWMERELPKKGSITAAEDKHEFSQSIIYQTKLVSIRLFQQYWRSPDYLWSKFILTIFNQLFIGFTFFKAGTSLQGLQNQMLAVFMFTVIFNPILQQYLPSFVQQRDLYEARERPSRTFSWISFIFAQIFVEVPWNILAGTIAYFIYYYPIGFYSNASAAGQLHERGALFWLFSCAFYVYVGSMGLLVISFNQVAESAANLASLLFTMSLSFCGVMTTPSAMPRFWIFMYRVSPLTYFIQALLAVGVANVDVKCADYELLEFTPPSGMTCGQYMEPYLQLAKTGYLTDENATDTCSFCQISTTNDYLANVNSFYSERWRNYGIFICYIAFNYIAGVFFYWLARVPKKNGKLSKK
Experimental: as §1, §2

W303-1A + pYI = assay: MIC on SD-uracil agar medium, wild strain W303-1A + pYI; assay type: cell-based; details: Saccharomyces cerevisiae, 48 h
KHW3 + pYI = assay: MIC on SD-uracil agar medium, triple gene disruption strain KHW3 + pYI; assay type: cell-based, Saccharomyces cerevisiae; details: for MIC: Saccharomyces cerevisiae, 48 h; for Increase of sensitivity of triple gene disruption strain KHW3 compared with wild strain: ratio of MIC values
Experimental: as §3

Q: Which “Growth inhibition of KHW3+pYI by test substance alone (cytotoxicity)” value (KHW3+pYI) does the source give for `C=CC[C@@H]1/C=C(\C)C[C@H](C)C[C@H](OC)[C@H]2O[C@@](O)(C(=O)C(=O)N3CCCC[C@H]3C(=O)O[C@H](/C(C)=C/[C@@H]3CC[C@@H](O)[C@H](OC)C3)[C@H](C)[C@@H](O)CC1=O)[C@H](C)C[C@@H]2OC` [FK 506] here?
A: did not inhibit the growth of KHW3+pYI

Q: Which results are given for `C[C@@H]1C[C@@H]([C@H](O)CC2CC(=O)NC(=O)C2)C(=O)[C@@H](C)C1` [Cycloheximide, cycloheximide]?
A: MIC (KHW4 + pYI): 0.02 µg/mL; MIC (KHW1 + pYI): 0.04 µg/mL; Increase of sensitivity of SYR1 gene disruption strain (KHW1+pYI) compared with wild strain (W303-1A+pYI) (KHW1 + pYI): 4 fold; MIC (KHW4 + pYI-PDR5): > 0.32 µg/mL; MIC (KHW3 + pYI-PDR5): 0.16 µg/mL; Growth inhibition of KHW3+pYI-PDR5 by sole drug in medium (PDR5 transporter): not inhibited; MIC (W303-1A + pYI): 0.16 µg/mL; MIC (KHW3 + pYI): 0.01 µg/mL; Increase of sensitivity of triple gene disruption strain KHW3 compared with wild strain (KHW3 + pYI): 16 fold

Q: `C/C=C/C/C=C/CCC(=O)[C@H]1O[C@H]1C(N)=O` [Cerulenin, cerulenin] was tested. Which MIC (KHW4 + pYI; KHW4 + pYI, 32° C., two days, read-out: MIC) did it give?
A: 0.4 µg/mL

Q: And the MIC (KHW1 + pYI; KHW1 + pYI, 32° C., two days, read-out: MIC)?
A: 0.4 µg/mL

Q: What about the “Increase of sensitivity of SYR1 gene disruption strain (KHW1+pYI) compared with wild strain (W303-1A+pYI)” value (KHW1 + pYI) of the same compound?
A: 2 fold

Q: And the MIC (KHW4 + pYI-PDR5)?
A: 0.6 µg/mL

Q: What about the MIC (KHW3 + pYI-PDR5; KHW3 + pYI-PDR5, 32° C., two days, read-out: MIC) of the same compound?
A: 0.8 µg/mL

Q: What about the “Growth inhibition of KHW3+pYI-PDR5 by sole drug in medium” value (PDR5 transporter) of the same compound?
A: not inhibited

Q: And the MIC (W303-1A + pYI; W303-1A + pYI (wild strain), 32° C., two days, read-out: MIC)?
A: 0.8 µg/mL

Q: And the MIC (KHW3 + pYI; KHW3 + pYI, 32° C., two days, read-out: MIC)?
A: 0.2 µg/mL

Q: And the “Increase of sensitivity of triple gene disruption strain KHW3 compared with wild strain” value (KHW3 + pYI)?
A: 4 fold

From patent US20040235723A1, “Method of screening abc protein promoter/inhibitor” (priority 2001, published 2004)
